According to ChEMBL document CHEMBL5506006, “Discovery of 2,9-diaryl-6-carbamoylpurines as a novel class of antitubercular agents” (Eur J Med Chem, 2024):
In brackets after ≈: the same amount, converted by molar mass. Activity calls are given as the source filed them. The rule behind the calls is not given here.

Assays:
[1] = system: Mycobacterium tuberculosis; test: Antituberculosis activity against Mycobacterium tuberculosis H37Rv; format: functional, organism-based
[2] = Selectivity index, ratio of EC50 for african green monkey Vero cells to IC90 for Mycobacterium tuberculosis H37Rv; format: toxicity; conditions: read-out: Selectivity Index
[3] = Cytotoxicity against African green monkey Vero cells; format: toxicity, cell-based; conditions: African green monkey (Chlorocebus sabaeus)
[4] = Biodistribution in C57BL/6 mouse liver at 25 mg/kg, po administered as single dose and measured after 6 hrs by HPLC based UV-Visble detector method; format: ADME, organism-based; conditions: read-out: Drug uptake
[5] = system: Mycobacterium tuberculosis; test: Antimycobacterial activity against Mycobacterium tuberculosis H37Rv infected in C57BL/6 mouse assessed as reduction in liver bacterial burden at 25 mg/kg, po pre-infected for 24 hrs followed by compound addition for 6 days per week and measured on day 18; format: functional, organism-based; conditions: time 18.0 day
[6] = system: Mycobacterium tuberculosis; test: Antituberculosis activity against Mycobacterium tuberculosis H37Rv infected in macrophage assessed as reduction in bacterial load at 10 times IC90 incubated for 3 days; format: functional, organism-based; conditions: time 3.0 day
[7] = Biodistribution in C57BL/6 mouse liver at 25 mg/kg, po administered as single dose and measured after 2 hrs by HPLC based UV-Visble detector method; format: ADME, organism-based; conditions: read-out: Drug uptake
[8] = system: Mycobacterium tuberculosis; test: Antimycobacterial activity against Mycobacterium tuberculosis H37Rv infected in C57BL/6 mouse assessed as reduction in lung bacterial burden at 25 mg/kg, po pre-infected for 24 hrs followed by compound addition for 6 days per week and measured on day 18 and 36; format: functional, organism-based; conditions: time 18-36 day
BMDM = test: Cytotoxicity against mouse BMDMs at 2 to 10 times MIC incubated for 24 hrs by MTS assay; format: toxicity, cell-based
[9] = Biodistribution in C57BL/6 mouse lung at 25 mg/kg, po administered as single dose and measured after 48 hrs by HPLC based UV-Visble detector method; format: ADME, organism-based; conditions: read-out: Drug uptake
[10] = Biodistribution in C57BL/6 mouse blood at 25 mg/kg, po administered as single dose and measured after 2 hrs by HPLC based UV-Visble detector method; format: ADME, organism-based; conditions: read-out: Drug uptake
[11] = Biodistribution in C57BL/6 mouse lung at 25 mg/kg, po administered as single dose and measured after 24 hrs by HPLC based UV-Visble detector method; format: ADME, organism-based; conditions: read-out: Drug uptake
[12] = system: Mycobacterium tuberculosis; test: Antituberculosis activity against Mycobacterium tuberculosis H37Rv infected in macrophage assessed as reduction in bacterial load at 2 times IC90 incubated for 3 days; format: functional, organism-based; conditions: time 3.0 day
[13] = Biodistribution in C57BL/6 mouse blood at 25 mg/kg, po administered as single dose and measured after 6 hrs by HPLC based UV-Visble detector method; format: ADME, organism-based; conditions: read-out: Drug uptake
[14] = Biodistribution in C57BL/6 mouse liver at 25 mg/kg, po administered as single dose and measured after 24 hrs by HPLC based UV-Visble detector method; format: ADME, organism-based; conditions: in vivo

SMILES | IC50 [1] [µg/mL] | IC90 [1] [µg/mL] | also measured
NC(=O)c1nc(-c2cccc(O)c2)nc2c1ncn2-c1ccccc1 | > 100 | > 100 | –
NC(=O)c1nc(-c2ccc(O)cc2)nc2c1ncn2-c1ccccc1 | 0.7 (≈ 2.11 µM) | 1.2 (≈ 3.62 µM) | selectivity ratio [2]: > 25.5; EC50 [3]: > 30 µg/mL
CC(C)(C)Oc1ccc(-c2nc(C(N)=O)c3ncn(-c4ccccc4)c3n2)cc1 | > 100 | > 100 | –
N#Cc1ccc(-n2cnc3c(C(N)=O)nc(-c4ccc(O)cc4)nc32)cc1 | > 100 | > 100 | –
COc1ccc(-n2cnc3c(C(N)=O)nc(-c4cccc(O)c4)nc32)cc1 | > 100 | > 100 | –
NC(=O)c1nc(-c2ccc(OC(F)(F)F)cc2)nc2c1ncn2-c1ccccc1 | > 100 | > 100 | –
Cc1ccc(-n2cnc3c(C(N)=O)nc(-c4ccc(O)cc4)nc32)cc1 | 19.2 (≈ 55.6 µM) | > 100 | –
NC(=O)c1nc(-c2ccccc2O)nc2c1ncn2-c1ccccc1 | > 100 | > 100 | –
Cn1cnc2c(C(N)=O)nc(-c3cccc(O)c3)nc21 | > 100 | > 100 | –
Cc1ccc(-n2cnc3c(C(N)=O)nc(-c4cccc(O)c4)nc32)cc1 | > 100 | > 100 | –
COc1ccc(-n2cnc3c(C(N)=O)nc(-c4ccccc4O)nc32)cc1 | > 100 | > 100 | –
CCOc1ccc(-c2nc(C(N)=O)c3ncn(-c4ccccc4)c3n2)cc1 | 1.44 (≈ 4.01 µM) | 1.65 (≈ 4.59 µM) | selectivity ratio [2]: 7.85; EC50 [3]: 12.9 µg/mL (≈ 35.9 µM)
CCc1ccc(-c2nc(C(N)=O)c3ncn(-c4ccccc4)c3n2)cc1 | > 100 | > 100 | –
N#Cc1ccc(-n2cnc3c(C(N)=O)nc(-c4cccc(O)c4)nc32)cc1 | 38.5 (≈ 108 µM) | > 100 | –
N#Cc1ccc(-n2cnc3c(C(N)=O)nc(-c4ccccc4O)nc32)cc1 | > 100 | > 100 | –
NC(=O)c1nc(-c2ccccc2O)nc2c1ncn2Cc1ccccc1 | > 100 | > 100 | –
NC(=O)c1nc(-c2ccc(C(F)(F)F)cc2)nc2c1ncn2-c1ccccc1 | > 100 | > 100 | –
CN(C)c1ccc(-c2nc(C(N)=O)c3ncn(-c4ccccc4)c3n2)cc1 | 1.38 (≈ 3.85 µM) | 1.67 (≈ 4.66 µM) | selectivity ratio [2]: > 23.9; EC50 [3]: > 40 µg/mL
COc1ccc(-c2nc(C(N)=O)c3ncn(-c4ccccc4)c3n2)c2ccccc12 | > 100 | > 100 | –
COc1ccc(-n2cnc3c(C(N)=O)nc(-c4ccc(O)cc4)nc32)cc1 | > 100 | > 100 | –
NC(=O)c1nc(-c2ccc(Oc3ccc(Cl)cc3)cc2)nc2c1ncn2-c1ccccc1 | 2.69 (≈ 6.09 µM) | 3.09 (≈ 6.99 µM) | selectivity ratio [2]: 4.11; EC50 [3]: 12.7 µg/mL (≈ 28.7 µM)
COc1ccc(-c2nc(C(N)=O)c3ncn(-c4ccccc4)c3n2)cc1 | < 0.1 | < 0.19 | concentration at 6 h [4]: 1460 ng/g; Activity [5]: Active; Activity [6]: Active; selectivity ratio [2]: > 154; concentration at 2 h [7]: 4800 ng/g; Activity [8]: Active; Activity (BMDM): Non-Toxic; concentration at 48 h [9]: 1210 ng/g; EC50 [3]: > 30 µg/mL; concentration at 2 h [10]: 630 ng/g; concentration at 24 h [11]: 4030 ng/g; Activity [12]: Active; concentration at 6 h [13]: 2160 ng/g; Drug uptake [14]: Not Active
NC(=O)c1nc(-c2ccc(N3CCOCC3)cc2)nc2c1ncn2-c1ccccc1 | > 100 | > 100 | –
Cn1cnc2c(C(N)=O)nc(-c3ccc(O)cc3)nc21 | 25.8 (≈ 95.8 µM) | 47.8 (≈ 178 µM) | –
COc1ccc2cc(-c3nc(C(N)=O)c4ncn(-c5ccccc5)c4n3)ccc2c1 | > 100 | > 100 | –
Cn1cnc2c(C(N)=O)nc(-c3ccccc3O)nc21 | > 100 | > 100 | –
NC(=O)c1nc(-c2ccc(O)cc2)nc2c1ncn2Cc1ccccc1 | > 100 | > 100 | –
Cc1ccc(-n2cnc3c(C(N)=O)nc(-c4ccccc4O)nc32)cc1 | > 100 | > 100 | –
